Consider 9 compounds from ChEMBL document CHEMBL5465560, “Selectivity Literature for EUbOPEN Chemogenomic Library” (2024).

Experiment [1] concerns the target Serine/threonine-protein kinase OSR1 (Homo sapiens) (UniProt O95747). The experiment in a line: Selectivity interaction (Kinase panel (KiNativ target engagement assay in Jurkat cells)) EUB0001635a OXSR1. Type of experiment: cell-based. The following applies: Selectivity number of off-targets 0.0, Selectivity number of targets 233.0, Source Knowledge https://www.sciencedirect.com/science/article/pii/S2451945619300674?via%3Dihub, at 1 µM.

Experiment [2] has as its target Ribosomal protein S6 kinase alpha-1 (Homo sapiens, UniProt Q15418). Briefly: Selectivity interaction (KinomeScan (DiscoverX)) EUB0000229b RPS6KA1. Conditions: at 10 µM.
In experiment [3] the target is T1, Serine/threonine-protein kinase D2 (Homo sapiens) (UniProt Q9BZL6).
T1 sequence (whole entry): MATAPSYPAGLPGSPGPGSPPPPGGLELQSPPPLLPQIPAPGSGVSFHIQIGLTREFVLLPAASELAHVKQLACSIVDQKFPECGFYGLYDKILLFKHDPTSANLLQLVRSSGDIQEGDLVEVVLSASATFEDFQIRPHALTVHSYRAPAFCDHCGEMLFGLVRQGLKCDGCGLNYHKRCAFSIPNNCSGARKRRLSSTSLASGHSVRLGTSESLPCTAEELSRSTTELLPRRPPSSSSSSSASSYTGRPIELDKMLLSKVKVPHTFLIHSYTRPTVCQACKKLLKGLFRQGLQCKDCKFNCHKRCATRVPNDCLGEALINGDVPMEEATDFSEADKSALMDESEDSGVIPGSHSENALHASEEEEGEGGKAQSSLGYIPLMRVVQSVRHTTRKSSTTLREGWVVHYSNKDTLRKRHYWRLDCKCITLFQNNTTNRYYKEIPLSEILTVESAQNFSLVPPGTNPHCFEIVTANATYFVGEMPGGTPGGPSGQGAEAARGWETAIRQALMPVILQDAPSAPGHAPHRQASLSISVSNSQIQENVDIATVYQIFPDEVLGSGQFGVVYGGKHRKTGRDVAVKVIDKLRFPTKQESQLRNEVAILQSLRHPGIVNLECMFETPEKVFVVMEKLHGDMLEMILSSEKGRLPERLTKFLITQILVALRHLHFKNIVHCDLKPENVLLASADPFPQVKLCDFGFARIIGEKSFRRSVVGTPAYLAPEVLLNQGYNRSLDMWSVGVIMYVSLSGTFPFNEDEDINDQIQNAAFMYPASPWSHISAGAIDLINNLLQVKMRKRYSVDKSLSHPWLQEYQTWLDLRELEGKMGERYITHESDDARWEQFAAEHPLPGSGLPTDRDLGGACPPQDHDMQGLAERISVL
The experiment in a line: Selectivity interaction (KinomeScan (DiscoverX)) EUB0001619a PRKD2. Conditions: at 1 µM.

Experiment [4] concerns the target Serine/threonine-protein kinase 26 (Homo sapiens, UniProt Q9P289). Briefly: Selectivity interaction (Kinase panel (literature)) EUB0001199aCl STK26. Conditions: at 1 µM.
In experiment [5] the target is Calcium/calmodulin-dependent protein kinase kinase 2 (Homo sapiens) (UniProt Q96RR4). Briefly: Selectivity interaction (ActivX KiNativ screen (kinase selectivity in THP-1 cell lysates)) EUB0000639a CAMKK2. Type of experiment: subcellular. The following applies: lysate, at 1 µM.
Experiment [6] concerns the target Serine/threonine-protein kinase 10 (Homo sapiens) (UniProt O94804). The experiment in a line: Selectivity interaction (ActivX KiNativ screen (kinase selectivity in THP-1 cell lysates)) EUB0000639a STK10. It is filed as subcellular. The following applies: lysate, at 1 µM.
In experiment [7] the target is Ribosomal protein S6 kinase alpha-5 (Homo sapiens) (UniProt O75582). Briefly: Selectivity interaction (KinomeScan (DiscoverX)) EUB0001049a RPS6KA5. The following applies: at 1 µM.
Experiment [8] has as its target T2, Mitogen-activated protein kinase kinase kinase kinase 2 (Homo sapiens) (UniProt Q12851).
T2 sequence (whole entry): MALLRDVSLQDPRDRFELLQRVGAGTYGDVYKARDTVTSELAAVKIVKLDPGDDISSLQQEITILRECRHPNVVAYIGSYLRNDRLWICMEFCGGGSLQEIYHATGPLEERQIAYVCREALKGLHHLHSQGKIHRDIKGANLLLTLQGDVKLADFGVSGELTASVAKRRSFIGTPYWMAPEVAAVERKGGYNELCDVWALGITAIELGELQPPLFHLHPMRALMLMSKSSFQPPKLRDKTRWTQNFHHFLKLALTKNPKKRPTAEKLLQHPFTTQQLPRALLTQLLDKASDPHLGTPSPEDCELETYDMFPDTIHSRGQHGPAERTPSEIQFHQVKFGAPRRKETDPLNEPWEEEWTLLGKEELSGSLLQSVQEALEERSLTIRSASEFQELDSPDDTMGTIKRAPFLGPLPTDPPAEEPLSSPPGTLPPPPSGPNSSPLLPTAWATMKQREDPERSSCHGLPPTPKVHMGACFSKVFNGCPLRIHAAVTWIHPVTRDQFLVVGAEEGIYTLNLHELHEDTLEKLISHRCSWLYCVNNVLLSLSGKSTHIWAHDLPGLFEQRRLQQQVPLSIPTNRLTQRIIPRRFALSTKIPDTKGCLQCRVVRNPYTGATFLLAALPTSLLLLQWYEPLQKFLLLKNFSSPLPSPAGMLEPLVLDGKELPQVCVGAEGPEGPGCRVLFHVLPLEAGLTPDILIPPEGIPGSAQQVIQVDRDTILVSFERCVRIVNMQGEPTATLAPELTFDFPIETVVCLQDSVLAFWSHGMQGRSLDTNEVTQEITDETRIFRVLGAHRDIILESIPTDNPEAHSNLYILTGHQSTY
Briefly: Selectivity interaction (KinomeScan (DiscoverX)) EUB0000695a MAP4K2. The following applies: at 100 nM.

Experiment [9] deals with Casein kinase II subunit alpha' (Homo sapiens) (UniProt P19784). Briefly: Selectivity interaction (KinomeScan (DiscoverX)) EUB0000618a CSNK2A2. Conditions: at 10 µM.
Sequence of Casein kinase II subunit alpha' (Homo sapiens) (P19784 whole entry, looked up, canonical isoform): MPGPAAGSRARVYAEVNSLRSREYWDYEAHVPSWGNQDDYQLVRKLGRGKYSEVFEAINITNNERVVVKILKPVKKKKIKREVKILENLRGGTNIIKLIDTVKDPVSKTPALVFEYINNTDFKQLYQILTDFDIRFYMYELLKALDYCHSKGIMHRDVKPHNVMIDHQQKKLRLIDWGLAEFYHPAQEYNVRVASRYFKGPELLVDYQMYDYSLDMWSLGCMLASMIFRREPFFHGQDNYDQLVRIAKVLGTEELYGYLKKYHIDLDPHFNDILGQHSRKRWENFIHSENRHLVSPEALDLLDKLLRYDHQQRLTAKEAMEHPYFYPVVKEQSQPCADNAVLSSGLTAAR
For experiment [10], the target named is Phosphorylase b kinase gamma catalytic chain, skeletal muscle/heart isoform (Homo sapiens) (UniProt Q16816). Briefly: Selectivity interaction (KinomeScan (DiscoverX)) EUB0000618a PHKG1. Conditions: at 10 µM.
Sequence of Phosphorylase b kinase gamma catalytic chain, skeletal muscle/heart isoform (Homo sapiens) (Q16816 whole entry, looked up, canonical isoform): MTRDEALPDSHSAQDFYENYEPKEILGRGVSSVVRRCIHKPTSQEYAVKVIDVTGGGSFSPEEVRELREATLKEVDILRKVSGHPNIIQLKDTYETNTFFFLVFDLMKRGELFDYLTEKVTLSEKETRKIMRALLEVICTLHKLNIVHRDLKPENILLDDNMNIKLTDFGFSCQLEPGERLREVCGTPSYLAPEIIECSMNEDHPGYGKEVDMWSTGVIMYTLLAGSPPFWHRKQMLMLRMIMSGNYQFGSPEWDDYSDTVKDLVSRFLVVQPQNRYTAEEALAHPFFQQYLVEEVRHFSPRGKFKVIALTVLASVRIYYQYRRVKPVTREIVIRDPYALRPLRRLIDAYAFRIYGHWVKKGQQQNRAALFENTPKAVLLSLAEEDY
Experiment [11] has as its target Calcium/calmodulin-dependent protein kinase type 1 (Homo sapiens) (UniProt Q14012). Briefly: Selectivity interaction (Upstate Kinase Profiler service (Millipore)) EUB0000056c CAMK1. Conditions: at 1 µM.
Experiment [12] deals with Homeodomain-interacting protein kinase 1 (Homo sapiens, UniProt Q86Z02). The experiment in a line: Selectivity interaction (Upstate Kinase Profiler service (Millipore)) EUB0000056c HIPK1. Conditions: at 1 µM.
Sequence of Homeodomain-interacting protein kinase 1 (Q86Z02 whole entry, looked up): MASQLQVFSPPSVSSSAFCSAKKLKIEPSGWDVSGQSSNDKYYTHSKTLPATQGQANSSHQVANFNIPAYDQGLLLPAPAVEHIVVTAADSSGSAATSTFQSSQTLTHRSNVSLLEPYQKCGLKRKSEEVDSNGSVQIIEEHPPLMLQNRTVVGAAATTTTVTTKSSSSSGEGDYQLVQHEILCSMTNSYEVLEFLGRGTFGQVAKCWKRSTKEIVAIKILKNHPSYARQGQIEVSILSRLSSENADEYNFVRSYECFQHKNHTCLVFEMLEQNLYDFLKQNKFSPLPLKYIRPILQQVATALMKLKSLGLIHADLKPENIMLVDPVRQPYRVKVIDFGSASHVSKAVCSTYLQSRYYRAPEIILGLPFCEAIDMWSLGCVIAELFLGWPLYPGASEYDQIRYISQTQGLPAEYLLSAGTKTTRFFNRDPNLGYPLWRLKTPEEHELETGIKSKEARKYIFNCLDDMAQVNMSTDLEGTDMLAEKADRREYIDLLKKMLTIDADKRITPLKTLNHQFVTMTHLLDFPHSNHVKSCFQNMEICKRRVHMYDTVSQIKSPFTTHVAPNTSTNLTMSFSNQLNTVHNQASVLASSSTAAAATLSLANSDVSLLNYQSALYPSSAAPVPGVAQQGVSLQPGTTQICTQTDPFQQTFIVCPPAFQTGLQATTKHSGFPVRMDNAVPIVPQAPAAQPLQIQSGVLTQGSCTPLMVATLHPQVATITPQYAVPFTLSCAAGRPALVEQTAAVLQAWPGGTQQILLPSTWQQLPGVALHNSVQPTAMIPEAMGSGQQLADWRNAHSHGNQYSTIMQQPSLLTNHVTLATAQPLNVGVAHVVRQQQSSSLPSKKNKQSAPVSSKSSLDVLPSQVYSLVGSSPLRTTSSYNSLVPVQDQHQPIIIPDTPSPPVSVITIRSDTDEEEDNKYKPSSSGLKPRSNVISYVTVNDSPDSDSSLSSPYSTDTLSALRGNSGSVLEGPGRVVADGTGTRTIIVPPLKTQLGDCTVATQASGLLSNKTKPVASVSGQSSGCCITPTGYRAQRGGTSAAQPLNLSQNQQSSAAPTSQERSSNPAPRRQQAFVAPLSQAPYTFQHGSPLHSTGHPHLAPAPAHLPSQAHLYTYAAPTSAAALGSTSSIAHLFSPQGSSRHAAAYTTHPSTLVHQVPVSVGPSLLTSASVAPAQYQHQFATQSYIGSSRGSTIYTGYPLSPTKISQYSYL

Molecules are shown by their SMILES.

Sequence of Ribosomal protein S6 kinase alpha-1 (Q15418 whole entry): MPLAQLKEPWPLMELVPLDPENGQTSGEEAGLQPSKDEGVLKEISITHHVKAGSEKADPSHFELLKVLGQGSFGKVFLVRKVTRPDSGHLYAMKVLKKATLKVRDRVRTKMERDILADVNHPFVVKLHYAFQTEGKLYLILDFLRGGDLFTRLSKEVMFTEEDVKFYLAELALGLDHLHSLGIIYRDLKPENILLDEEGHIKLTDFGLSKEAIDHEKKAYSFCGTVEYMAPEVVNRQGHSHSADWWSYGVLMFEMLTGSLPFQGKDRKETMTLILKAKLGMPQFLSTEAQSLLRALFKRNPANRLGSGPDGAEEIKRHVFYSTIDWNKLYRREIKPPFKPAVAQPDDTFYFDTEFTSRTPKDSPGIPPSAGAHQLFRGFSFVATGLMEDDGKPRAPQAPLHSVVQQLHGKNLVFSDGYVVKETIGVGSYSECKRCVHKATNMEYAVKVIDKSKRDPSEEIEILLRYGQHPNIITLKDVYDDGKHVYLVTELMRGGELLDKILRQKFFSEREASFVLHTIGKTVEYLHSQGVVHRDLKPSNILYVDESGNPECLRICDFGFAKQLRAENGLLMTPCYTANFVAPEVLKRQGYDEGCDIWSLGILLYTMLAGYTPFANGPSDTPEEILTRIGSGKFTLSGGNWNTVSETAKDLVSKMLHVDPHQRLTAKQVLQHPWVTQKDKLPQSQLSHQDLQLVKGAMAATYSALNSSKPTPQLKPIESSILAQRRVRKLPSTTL
Sequence of Serine/threonine-protein kinase 26 (Q9P289 2-416 limits assumed): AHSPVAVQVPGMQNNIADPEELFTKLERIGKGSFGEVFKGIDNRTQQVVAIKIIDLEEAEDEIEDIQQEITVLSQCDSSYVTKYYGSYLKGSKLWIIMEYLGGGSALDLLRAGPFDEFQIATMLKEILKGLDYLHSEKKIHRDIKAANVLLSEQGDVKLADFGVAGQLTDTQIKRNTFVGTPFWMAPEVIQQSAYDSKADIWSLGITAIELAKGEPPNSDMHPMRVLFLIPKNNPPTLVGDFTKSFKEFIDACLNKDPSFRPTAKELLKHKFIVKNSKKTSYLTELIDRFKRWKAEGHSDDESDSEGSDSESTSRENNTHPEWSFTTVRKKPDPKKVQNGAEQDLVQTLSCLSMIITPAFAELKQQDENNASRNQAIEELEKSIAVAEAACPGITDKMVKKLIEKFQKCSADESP
Sequence of Serine/threonine-protein kinase 10 (Homo sapiens) (O94804 whole entry, looked up): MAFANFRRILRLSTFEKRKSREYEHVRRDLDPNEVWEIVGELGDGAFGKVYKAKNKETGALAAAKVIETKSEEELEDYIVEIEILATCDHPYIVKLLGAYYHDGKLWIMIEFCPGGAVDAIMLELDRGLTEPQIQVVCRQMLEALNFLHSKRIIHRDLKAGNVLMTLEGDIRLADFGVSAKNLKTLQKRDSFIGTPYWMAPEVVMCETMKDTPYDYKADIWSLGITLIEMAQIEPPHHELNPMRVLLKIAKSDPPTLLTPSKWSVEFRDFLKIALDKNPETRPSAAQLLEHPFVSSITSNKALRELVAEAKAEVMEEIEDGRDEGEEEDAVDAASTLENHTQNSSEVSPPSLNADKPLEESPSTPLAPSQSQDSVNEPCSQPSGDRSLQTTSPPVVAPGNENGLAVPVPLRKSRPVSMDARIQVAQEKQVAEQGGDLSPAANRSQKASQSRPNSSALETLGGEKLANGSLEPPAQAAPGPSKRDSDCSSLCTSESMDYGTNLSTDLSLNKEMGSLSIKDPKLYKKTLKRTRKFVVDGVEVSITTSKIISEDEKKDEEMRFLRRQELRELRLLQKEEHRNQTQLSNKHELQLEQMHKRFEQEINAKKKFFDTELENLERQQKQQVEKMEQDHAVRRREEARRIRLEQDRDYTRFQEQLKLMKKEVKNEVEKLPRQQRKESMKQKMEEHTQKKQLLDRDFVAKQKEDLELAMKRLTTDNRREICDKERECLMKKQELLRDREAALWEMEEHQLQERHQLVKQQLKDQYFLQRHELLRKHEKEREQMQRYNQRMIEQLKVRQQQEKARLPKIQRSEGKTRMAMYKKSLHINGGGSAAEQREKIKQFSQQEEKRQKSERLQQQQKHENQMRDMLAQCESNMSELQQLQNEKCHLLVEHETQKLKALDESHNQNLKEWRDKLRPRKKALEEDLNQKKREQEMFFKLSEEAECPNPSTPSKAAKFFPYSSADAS
Sequence of Serine/threonine-protein kinase OSR1 (Homo sapiens) (O95747 2-527 limits assumed): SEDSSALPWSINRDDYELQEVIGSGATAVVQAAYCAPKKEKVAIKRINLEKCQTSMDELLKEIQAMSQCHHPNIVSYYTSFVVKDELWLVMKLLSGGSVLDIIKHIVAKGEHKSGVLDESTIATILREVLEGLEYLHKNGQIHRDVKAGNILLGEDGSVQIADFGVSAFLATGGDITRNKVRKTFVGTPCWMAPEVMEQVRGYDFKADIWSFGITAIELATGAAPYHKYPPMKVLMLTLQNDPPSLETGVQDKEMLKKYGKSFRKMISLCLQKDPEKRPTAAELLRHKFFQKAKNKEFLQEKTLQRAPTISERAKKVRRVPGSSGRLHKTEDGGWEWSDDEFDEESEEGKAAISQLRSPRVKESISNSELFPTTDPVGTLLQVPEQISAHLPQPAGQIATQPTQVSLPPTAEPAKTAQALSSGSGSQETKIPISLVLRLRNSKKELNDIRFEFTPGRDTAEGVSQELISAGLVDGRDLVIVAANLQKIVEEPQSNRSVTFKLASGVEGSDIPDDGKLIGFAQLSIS
Sequence of Calcium/calmodulin-dependent protein kinase type 1 (Homo sapiens) (Q14012 whole entry, looked up): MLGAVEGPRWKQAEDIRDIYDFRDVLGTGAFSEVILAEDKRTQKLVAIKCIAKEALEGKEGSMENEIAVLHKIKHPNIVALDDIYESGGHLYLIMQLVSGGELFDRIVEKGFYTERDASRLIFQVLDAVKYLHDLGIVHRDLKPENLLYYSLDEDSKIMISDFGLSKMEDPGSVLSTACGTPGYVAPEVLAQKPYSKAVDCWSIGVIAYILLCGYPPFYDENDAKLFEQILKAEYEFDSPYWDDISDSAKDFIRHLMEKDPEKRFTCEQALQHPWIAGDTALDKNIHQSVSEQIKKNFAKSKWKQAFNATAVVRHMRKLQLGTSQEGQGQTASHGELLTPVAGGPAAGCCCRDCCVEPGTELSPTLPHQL

In experiment [1], `C=CC(=O)Nc1ccc(C(=O)Nc2[nH]nc3c2CN(C(=O)N[C@H](CN(C)C)c2ccccc2)C3(C)C)cc1` yielded a % of engagement of 2.6%.

On to `COc1cc(N(C)c2ccnc3ccc(C(F)(F)F)cc23)cc(OC)c1OC`, for which the % binding in [2] worked out at 93%.

`N#Cc1cccc(-c2c[nH]c3ncnc(N4CCOCC4)c23)c1` returned a % of control in experiment [3] of 100%.

For the compound `CN1Cc2nccc(-c3cn(C)nc3-c3ccc(F)cc3)c2C1=O`, the % of inhibition in experiment [4] worked out at 8%.

Consider `CC[C@@H]1[C@H](F)C(=O)N[C@@H]1COc1nccc2cc(C(N)=O)c(OC)cc12` [ZIMLOVISERTIB], for which the % of inhibition in experiment [5] was 12.1%; in experiment [6] it was -15.7%.

Regarding `COc1cc(Nc2nc(C)cc(-c3cnn4nc(OC)ccc34)n2)cc(C(F)(F)F)c1`, in experiment [7], the % of control worked out at 100%.

In the case of `Cc1cc(F)c(C(=O)Nc2cccc(-c3nncn3C(C)C)n2)cc1-n1cnc(C2CC2)c1`, in experiment [8], the % of control came out at 100%.

Turning to `O[C@H]1CC[C@H](Nc2ncc3nc(Nc4c(F)cc(F)cc4F)n([C@H]4CCOC4)c3n2)CC1`, the % of control in [9] was 96%; in experiment [10] it was 100%.

For `Cc1ccc(-c2ccc3c(ccc4sc5c(c43)NC[C@@H](C)NC5=O)n2)cn1`, the % of inhibition in [11] was found to be 2%; in experiment [12], 7%.
